Target: T1, tissue factor:factor VIIa complex (tissue factor on human bladder carcinoma J-82 cells) (Homo sapiens, UniProt P08709)
T1 construct: endogenous in cells; host or cells: J-82 (ATCC HTB-1) human bladder carcinoma cells: source of the tissue factor only
Assay: Factor X activation chromogenic substrate assay (J-82 cells as source of tissue factor, Spectrozyme Xa)
Type: biochemical
Details: PPACK 1 μM; positive control; 30 min at room temperature, OD-405; read-out: Percent Inhibition of F.X Activation
Source text: The second screening was used to evaluate the ability of isolated antibodies to inhibit tissue factor catalyzed factor VII activity as reflected by the conversion of factor X to factor Xa. The human bladder carcinoma cell line J-82 (ATCC HTB-1) expresses cell surface-associated tissue factor and is used as the source of tissue factor and phospholipids. A chromogenic substrate for factor Xa is used, which develops color proportional to the amount of factor VIIa activity. Conversely, color is not developed if factor VII activity is blocked. The assay is performed as follows. J-82 cells are suspended in tris-buffered saline at a concentration of 1×10^5 cells per mL. Fifty microliters of cell suspension is added to individual wells of a 96-well polystyrene microliter plate. Fifty microliters of hybridoma culture supernatant diluted at least 1:10 is added to appropriate wells followed by 25 μL of 20 mM CaCl2. Negative control is irrelevant hybridoma culture supernatant (such as anti-tPA supernatant) and positive control is 1 μM PPACK (d-phenylalanine-proline-arginine-chloromethylkefone). Twenty-five microliters of 90 nM factor X and 50 λL of substrate Spectrozyme Xa are added to each well. Following thirty minute incubation at room temperature, OD-405 is determined. […]

T1 sequence (P08709 213-466 limits assumed): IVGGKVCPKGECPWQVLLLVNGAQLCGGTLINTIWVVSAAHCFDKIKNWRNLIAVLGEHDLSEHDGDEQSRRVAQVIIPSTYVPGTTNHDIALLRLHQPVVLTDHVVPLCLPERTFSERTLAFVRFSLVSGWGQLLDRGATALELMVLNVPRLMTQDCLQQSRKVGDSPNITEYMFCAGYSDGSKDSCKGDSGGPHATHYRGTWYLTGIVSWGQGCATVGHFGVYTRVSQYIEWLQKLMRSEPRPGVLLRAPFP
T1 sequence (P08709 61-212 limits assumed): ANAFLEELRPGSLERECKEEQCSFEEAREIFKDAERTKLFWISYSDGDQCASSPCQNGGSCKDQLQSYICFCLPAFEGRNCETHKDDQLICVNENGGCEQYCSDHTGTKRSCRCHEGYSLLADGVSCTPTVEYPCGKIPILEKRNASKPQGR
T1 sequence (P13726 33-295 partner): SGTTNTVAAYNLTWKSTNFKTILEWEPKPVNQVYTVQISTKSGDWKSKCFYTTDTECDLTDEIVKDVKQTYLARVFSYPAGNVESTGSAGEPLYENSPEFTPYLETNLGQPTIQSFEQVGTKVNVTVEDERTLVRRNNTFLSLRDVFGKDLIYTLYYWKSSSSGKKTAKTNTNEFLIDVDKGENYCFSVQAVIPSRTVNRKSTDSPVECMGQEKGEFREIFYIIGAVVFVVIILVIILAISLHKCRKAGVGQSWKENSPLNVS

`N=C(N)NCCC[C@H](NC(=O)[C@@H]1CCCN1C(=O)[C@H](N)Cc1ccccc1)C(=O)CCl` [PPACK, d-phenylalanine-proline-arginine-chloromethylkefone] showed an inhibition at 1 µM of 100%.

Reference: US5506134A, “Hypridoma and monoclonal antibody which inhibits blood coagulation tissue factor/factor VIIa complex” (Corvas International, Inc., priority 1991, dated 1996)
